Assay results taken from the supplement of paper PMC10307832.

How the values were obtained:
Test in all cases: relative viability (nuclei count vs DMSO), 5 days (fraction); higher = more cells survive
[1] = compound: COc1cc2nc(N3CCCN(C)CC3)nc(NC3CCN(Cc4ccccc4)CC3)c2cc1OC + CC(=O)c1c(C)c2cnc(Nc3ccc(N4CCNCC4)cn3)nc2n(C2CCCC2)c1=O [Palbociclib] (partner 0.5 µM)
Method in brief: (§1)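 Lung cancer cell lines were pin-tool dosed in 1536-well plates on the day after seeding, with either a lone drug or a fixed anchor-drug dose plus five library-drug doses (not always all listed) in √10 steps. Nuclei were counted on 4× images after 5 days. Relative viability is the ratio of treated-well to vehicle-well nuclei counts, with each value a median of duplicate plates.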

AZD6482 + Trametinib = compound: Cc1cc([C@@H](C)Nc2ccccc2C(=O)O)c2nc(N3CCOCC3)cc(=O)n2c1 [AZD6482] + CC(=O)Nc1cccc(-n2c(=O)n(C3CC3)c(=O)c3c(Nc4ccc(I)cc4F)n(C)c(=O)c(C)c32)c1 [Trametinib] (partner 0.02 µM)
Method in brief: as §1

AZD6482 + Palbociclib = compound: Cc1cc([C@@H](C)Nc2ccccc2C(=O)O)c2nc(N3CCOCC3)cc(=O)n2c1 [AZD6482] + CC(=O)c1c(C)c2cnc(Nc3ccc(N4CCNCC4)cn3)nc2n(C2CCCC2)c1=O [Palbociclib] (partner 0.5 µM)
Method in brief: as §1

AZD6482 + Pictilisib = compound: Cc1cc([C@@H](C)Nc2ccccc2C(=O)O)c2nc(N3CCOCC3)cc(=O)n2c1 [AZD6482] + CS(=O)(=O)N1CCN(Cc2cc3nc(-c4cccc5[nH]ncc45)nc(N4CCOCC4)c3s2)CC1 [Pictilisib] (partner 1 µM)
Method in brief: as §1

Row | Cell Line | relative viability ([1]; first compound 0.2 µM) | relative viability ([1]; first compound 0.6325 µM) | relative viability ([1]; first compound 2 µM) | relative viability ([1]; first compound 6.325 µM) | relative viability (AZD6482 + Trametinib; first compound 0.08 µM) | relative viability (AZD6482 + Trametinib; first compound 0.253 µM) | relative viability (AZD6482 + Trametinib; first compound 0.8 µM) | relative viability (AZD6482 + Trametinib; first compound 2.53 µM) | relative viability (AZD6482 + Trametinib; first compound 8 µM) | relative viability (AZD6482 + Palbociclib; first compound 0.08 µM) | relative viability (AZD6482 + Palbociclib; first compound 0.253 µM) | relative viability (AZD6482 + Palbociclib; first compound 0.8 µM) | relative viability (AZD6482 + Palbociclib; first compound 2.53 µM) | relative viability (AZD6482 + Palbociclib; first compound 8 µM) | relative viability (AZD6482 + Pictilisib; first compound 0.08 µM) | relative viability (AZD6482 + Pictilisib; first compound 0.253 µM) | relative viability (AZD6482 + Pictilisib; first compound 0.8 µM) | relative viability (AZD6482 + Pictilisib; first compound 2.53 µM) | relative viability (AZD6482 + Pictilisib; first compound 8 µM)
1 | NCI-H2228 | 0.63 | 0.808 | 0.835 | 0.509 | 0.342 | 0.579 | 0.457 | 0.484 | 0.494 | 0.374 | 0.565 | 0.682 | 0.653 | 0.679 | 0.368 | 0.691 | 0.266 | 0.387 | 0.387
2 | NCI-H2347 | 0.46 | 0.433 | 0.385 | 0.422 | 0.276 | 0.271 | 0.222 | 0.265 | 0.238 | 0.35 | 0.389 | 0.406 | 0.394 | 0.389 | – | 0.75 | 0.559 | 0.393 | 0.421
3 | NCI-H2405 | 0.554 | 0.493 | 0.522 | 0.514 | 0.459 | 0.559 | 0.531 | 0.365 | 0.395 | 0.378 | 0.495 | 0.526 | 0.455 | 0.413 | 0.31 | – | 0.559 | 0.381 | 0.386
4 | NCI-H3122 | 0.207 | 0.21 | 0.216 | 0.209 | 0.211 | 0.23 | 0.184 | 0.181 | 0.161 | 0.192 | 0.198 | 0.168 | 0.155 | 0.154 | 0.644 | 0.572 | 0.642 | 0.407 | 0.636
5 | PC-3 [JPC-3] | 0.542 | 0.591 | 0.578 | 0.468 | 0.556 | 0.694 | 0.65 | 0.564 | 0.55 | 0.559 | 0.564 | 0.528 | 0.572 | 0.534 | 0.601 | 0.743 | 0.739 | 0.652 | 0.681
6 | PC-14 | 0.536 | 0.477 | 0.446 | 0.0369 | 0.704 | 0.747 | 0.794 | 0.455 | 0.622 | 0.447 | 0.524 | 0.578 | 0.503 | 0.519 | 0.575 | 0.632 | 0.591 | 0.376 | 0.771
7 | RERF-LC-KJ | 0.982 | 1.11 | 1.13 | 0.909 | 0.767 | 0.764 | 0.74 | 0.682 | 0.584 | 0.961 | 0.981 | 1.03 | 0.838 | 0.808 | 0.492 | 0.488 | 0.502 | 0.535 | 0.7
8 | SK-LU-1 | 0.409 | 0.353 | 0.394 | 0.375 | – | 0.418 | 0.495 | 0.399 | 0.453 | – | 0.346 | 0.376 | 0.315 | 0.387 | – | 0.535 | 0.622 | 0.461 | 0.448
9 | SK-MES-1 | 0.319 | 0.304 | 0.295 | 0.106 | 0.394 | 0.454 | 0.414 | 0.294 | 0.291 | 0.282 | 0.293 | 0.295 | 0.282 | 0.301 | 0.285 | 0.34 | 0.33 | 0.202 | 0.35
10 | SW 1573 | 0.365 | 0.417 | 0.377 | 0.196 | 0.466 | 0.508 | 0.526 | 0.336 | 0.307 | 0.296 | 0.351 | 0.328 | 0.282 | 0.218 | 0.415 | 0.459 | 0.445 | 0.304 | 0.447
